One compound from patent publication US9198879B2, “Pharmacologically optimized multimodal drug delivery system for nordihydroguiaretic acid (NDGA)” (Napo Pharmaceuticals, Inc., priority 2011, dated 2015) can be followed below.

This experiment relates to fructose-fed and fat-fed/STZ rat models. The experiment can be described thus: NDGA versus metformin at equimolar doses in fructose-fed and fat-fed/STZ rat models. The class given is in vivo. To be noted: equimolar doses of NDGA or metformin. The source says: NDGA has been studied by administering it orally to animals to determine its effectiveness for lowering glucose, free fatty acid (FFA) and triglyceride levels. […] See Example 2 below. […] There was no significant baseline difference between the NDGA and metformin groups.
In one such study, the effects of NDGA and metformin as a control drug for treatment of diabetes were studied in a non-diabetic model of hypertriglyceridemia (fructose-fed) and a non-genetic, (i.e., streptozotocin (STZ) treated) model of diabetes. […] See FIGS. 2 (glucose) and 3 (triglycerides).

Entries after “also recorded” stand apart in the source; their conditions may differ.

For the compound `CN(C)C(=N)N=C(N)N` [metformin], the “change in insulin concentrations” value is “without changing insulin concentration; also recorded: without any change in insulin concentrations”, the “glucose lowering in comparison to the vehicle control” value is reported as “significantly lowered glucose” and the “triglyceride lowering in comparison to the vehicle control” value is listed as “significantly lowered triglycerides”.
